Data from ChEMBL document CHEMBL1201862, “PubChem BioAssay data set” (2004).
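Test compounds were applied to cells in 96-well plates for 48 hours at 5 doses. GI50 marks 50% less growth.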 The source made the active and inactive calls. Cut-off read from the data, not from the text of the source: active = GI50 up to about 1.1 µM and inactive = higher.

Legend:
Assay in all cases: NCI-60 cell line screen, 48 h
SN12C = tested on: SN12C
RPMI-8226 = tested on: RPMI-8226
K562 = tested on: K562
A549 = tested on: A549
COLO 205 = tested on: COLO 205
U-251 = tested on: U-251
PC-3 = tested on: PC-3
CAKI-1 = tested on: CAKI-1
MDA-N = tested on: MDA-N
MOLT-4 = tested on: MOLT-4
SF-295 = tested on: SF-295
A498 = tested on: A498
KM12 = tested on: KM12
OVCAR-3 = tested on: OVCAR-3
ACHN = tested on: ACHN
EKVX = tested on: EKVX
SW-620 = tested on: SW-620
SNB-19 = tested on: SNB-19
HCT-15 = tested on: HCT-15
UACC-62 = tested on: UACC-62
DU-145 = tested on: DU-145
SF-268 = tested on: SF-268
T47D = tested on: T47D
MDA-MB-435 = tested on: MDA-MB-435
SK-MEL-5 = tested on: SK-MEL-5
HOP-62 = tested on: HOP-62
HOP-92 = tested on: HOP-92
MCF7 = tested on: MCF7
UO-31 = tested on: UO-31
LOX IMVI = tested on: LOX IMVI
OVCAR-5 = tested on: OVCAR-5
OVCAR-8 = tested on: OVCAR-8
M14 = tested on: M14
HCT-116 = tested on: HCT-116
NCI-H522 = tested on: NCI-H522
OVCAR-4 = tested on: OVCAR-4
IGROV-1 = tested on: IGROV-1
SNB-75 = tested on: SNB-75
TK-10 = tested on: TK-10
SK-MEL-2 = tested on: SK-MEL-2
UACC-257 = tested on: UACC-257
Hs-578T = tested on: Hs-578T
NCI-H460 = tested on: NCI-H460
HT-29 = tested on: HT-29
NCI/ADR-RES = tested on: NCI/ADR-RES
SF-539 = tested on: SF-539
786-0 = tested on: 786-0
RXF 393 = tested on: RXF 393
SK-OV-3 = tested on: SK-OV-3
Malme-3M = tested on: Malme-3M
HCC 2998 = tested on: HCC 2998
NCI-H23 = tested on: NCI-H23
SR = tested on: SR
SK-MEL-28 = tested on: SK-MEL-28
HL-60 = tested on: HL-60
MDA-MB-231 = tested on: MDA-MB-231
NCI-H226 = tested on: NCI-H226
CCRF-CEM = tested on: CCRF-CEM

Measured: GI50

Cc1cc2c(C(C)C)c(O)c(O)c(C=O)c2c(O)c1-c1c(C)cc2c(C(C)C)c(O)c(O)c(C=O)c2c1O
5.18 µM: HCT-15
inactive: SN12C 6.14 µM | RPMI-8226 4.38 µM | K562 2.16 µM | A549 5.69 µM | COLO 205 4.35 µM | U-251 3.52 µM | PC-3 5.04 µM | CAKI-1 3.39 µM | MDA-N 87.7 µM | MOLT-4 2.24 µM | SF-295 2.81 µM | A498 4.47 µM | KM12 2.07 µM | OVCAR-3 2.3 µM | ACHN 5.51 µM | EKVX 1.32 µM | SW-620 7.06 µM | SNB-19 7.24 µM | UACC-62 4.7 µM

COc1cc(O)c(C(C)=O)c(O)c1
76.7 µM: HCT-15
inactive: DU-145 64.9 µM | SN12C 59 µM | SF-268 69.8 µM | T47D 25.6 µM | MDA-MB-435 82.6 µM | SK-MEL-5 35.3 µM | HOP-62 > 100 µM | K562 18.7 µM | HOP-92 25 µM | A549 > 100 µM | COLO 205 > 100 µM | MCF7 37.5 µM | U-251 63.8 µM | PC-3 60.7 µM | UO-31 59.6 µM | LOX IMVI 75.9 µM | OVCAR-5 > 100 µM | MDA-N > 100 µM | OVCAR-8 55.2 µM | M14 86.9 µM | HCT-116 55 µM | NCI-H522 43.1 µM | OVCAR-4 76.2 µM | IGROV-1 77.3 µM | SNB-75 50.8 µM | SF-295 92.5 µM | TK-10 > 100 µM | SK-MEL-2 78.9 µM | A498 80.5 µM | UACC-257 > 100 µM | KM12 > 100 µM | OVCAR-3 > 100 µM | Hs-578T 62.7 µM | NCI-H460 88.1 µM | HT-29 > 100 µM | NCI/ADR-RES > 100 µM | ACHN 42.7 µM | EKVX 37.4 µM | SF-539 > 100 µM | SW-620 > 100 µM | 786-0 > 100 µM | RXF 393 > 100 µM | SK-OV-3 > 100 µM | Malme-3M > 100 µM | HCC 2998 > 100 µM | NCI-H23 30.8 µM | UACC-62 46.1 µM | SR 36.3 µM | SK-MEL-28 52.6 µM

CCOC(=O)c1csc(NC(=O)CN2CCN(C)CC2)n1
inactive: HL-60 > 100 µM | DU-145 > 100 µM | RPMI-8226 > 100 µM | T47D > 100 µM | MDA-MB-435 > 100 µM | SK-MEL-5 > 100 µM | HOP-62 > 100 µM | K562 > 100 µM | HOP-92 > 100 µM | MDA-MB-231 > 100 µM | A549 > 100 µM | COLO 205 > 100 µM | MCF7 > 100 µM | U-251 > 100 µM | PC-3 > 100 µM | UO-31 > 100 µM | LOX IMVI > 100 µM | OVCAR-5 > 100 µM | CAKI-1 > 100 µM | MDA-N > 100 µM | OVCAR-8 > 100 µM | M14 > 100 µM | OVCAR-4 > 100 µM | MOLT-4 > 100 µM | IGROV-1 > 100 µM | SNB-75 > 100 µM | SF-295 > 100 µM | TK-10 > 100 µM | SK-MEL-2 > 100 µM | A498 > 100 µM | UACC-257 > 100 µM | KM12 > 100 µM | OVCAR-3 > 100 µM | NCI-H226 > 100 µM | NCI-H460 > 100 µM | HT-29 > 100 µM | NCI/ADR-RES > 100 µM | ACHN > 100 µM | EKVX > 100 µM | SW-620 > 100 µM | SNB-19 > 100 µM | RXF 393 > 100 µM | SK-OV-3 > 100 µM | CCRF-CEM > 100 µM | Malme-3M > 100 µM | HCC 2998 > 100 µM | NCI-H23 > 100 µM | UACC-62 > 100 µM | SR > 100 µM | SK-MEL-28 > 100 µM
> 100 µM: HCT-15
